# From PubChem BioAssay (NCI)
#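 Protocol summary: plate cells (96-well), add compound at 5 concentrations, incubate 48 h, interpolate endpoints linearly. GI50 marks 50% less growth. Definition used: TGI = concentration required for complete inhibition of growth.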
# Columns and labels:
# Assay in all cases: DTP human tumour cell line panel, 48 h
# NCI-H226 lung = test system: NCI-H226 lung
# NCI-H23 lung = test system: NCI-H23 lung
# NCI-H460 lung = test system: NCI-H460 lung
# NCI-H522 lung = test system: NCI-H522 lung
# NCI/ADR-RES ovarian = test system: NCI/ADR-RES ovarian
# OVCAR-3 ovarian = test system: OVCAR-3 ovarian
# OVCAR-4 ovarian = test system: OVCAR-4 ovarian
# OVCAR-5 ovarian = test system: OVCAR-5 ovarian
# OVCAR-8 ovarian = test system: OVCAR-8 ovarian
# PC-3 prostate = test system: PC-3 prostate
# RPMI-8226 leukemia = test system: RPMI-8226 leukemia
# RXF 393 renal = test system: RXF 393 renal
# SF-268 CNS = test system: SF-268 CNS
# SF-295 CNS = test system: SF-295 CNS
# SF-539 CNS = test system: SF-539 CNS
# SK-MEL-2 melanoma = test system: SK-MEL-2 melanoma
# SK-MEL-28 melanoma = test system: SK-MEL-28 melanoma
# SK-MEL-5 melanoma = test system: SK-MEL-5 melanoma
# SK-OV-3 ovarian = test system: SK-OV-3 ovarian
# SN12C renal = test system: SN12C renal
# SNB-19 CNS = test system: SNB-19 CNS
# SNB-75 CNS = test system: SNB-75 CNS
# SW-620 colon = test system: SW-620 colon
# T-47D breast = test system: T-47D breast
# TK-10 renal = test system: TK-10 renal
# U251 CNS = test system: U251 CNS
# UACC-257 melanoma = test system: UACC-257 melanoma
# UACC-62 melanoma = test system: UACC-62 melanoma
# UO-31 renal = test system: UO-31 renal
compound,measurement,setting,value
C=C1CC[C@@H]2[C@]3(C)COC(c4ccccc4)O[C@@H]3CC[C@@]2(C)[C@@H]1C/C=C1/C(=O)OCC1OC(C)=O (stereo partly drawn),GI50,NCI-H226 lung,4.89 µM
same,TGI,NCI-H226 lung,23.1 µM
same,GI50,NCI-H23 lung,15.1 µM
same,TGI,NCI-H23 lung,29.1 µM
same,GI50,NCI-H460 lung,18.9 µM
same,TGI,NCI-H460 lung,51.8 µM
same,GI50,NCI-H522 lung,10.2 µM
same,TGI,NCI-H522 lung,22.8 µM
same,GI50,NCI/ADR-RES ovarian,3.28 µM
same,TGI,NCI/ADR-RES ovarian,11.1 µM
same,GI50,OVCAR-3 ovarian,2.74 µM
same,TGI,OVCAR-3 ovarian,11.9 µM
same,GI50,OVCAR-4 ovarian,10.9 µM
same,TGI,OVCAR-4 ovarian,25.2 µM
same,GI50,OVCAR-5 ovarian,13.4 µM
same,TGI,OVCAR-5 ovarian,26.2 µM
same,GI50,OVCAR-8 ovarian,3.23 µM
same,TGI,OVCAR-8 ovarian,12.3 µM
same,GI50,PC-3 prostate,5.4 µM
same,TGI,PC-3 prostate,20.4 µM
same,GI50,RPMI-8226 leukemia,2.7 µM
same,TGI,RPMI-8226 leukemia,7.85 µM
same,GI50,RXF 393 renal,4.13 µM
same,TGI,RXF 393 renal,17 µM
same,GI50,SF-268 CNS,15.7 µM
same,TGI,SF-268 CNS,34.3 µM
same,GI50,SF-295 CNS,13.3 µM
same,TGI,SF-295 CNS,26.1 µM
same,GI50,SF-539 CNS,4.12 µM
same,TGI,SF-539 CNS,14.8 µM
same,GI50,SK-MEL-2 melanoma,11.1 µM
same,TGI,SK-MEL-2 melanoma,24.8 µM
same,GI50,SK-MEL-28 melanoma,13.9 µM
same,TGI,SK-MEL-28 melanoma,26.9 µM
same,GI50,SK-MEL-5 melanoma,12.2 µM
same,TGI,SK-MEL-5 melanoma,24.8 µM
same,GI50,SK-OV-3 ovarian,19.3 µM
same,TGI,SK-OV-3 ovarian,34.4 µM
same,GI50,SN12C renal,5.64 µM
same,TGI,SN12C renal,18.9 µM
same,GI50,SNB-19 CNS,15.1 µM
same,TGI,SNB-19 CNS,28.4 µM
same,GI50,SNB-75 CNS,1.77 µM
same,TGI,SNB-75 CNS,19.3 µM
same,GI50,SW-620 colon,3.04 µM
same,TGI,SW-620 colon,10.3 µM
same,GI50,T-47D breast,10.6 µM
same,TGI,T-47D breast,27 µM
same,GI50,TK-10 renal,19 µM
same,TGI,TK-10 renal,33.4 µM
same,GI50,U251 CNS,10.4 µM
same,TGI,U251 CNS,24.5 µM
same,GI50,UACC-257 melanoma,14.3 µM
same,TGI,UACC-257 melanoma,28.7 µM
same,GI50,UACC-62 melanoma,7.28 µM
same,TGI,UACC-62 melanoma,20.3 µM
same,GI50,UO-31 renal,10.4 µM
same,TGI,UO-31 renal,22.1 µM
